In publication PMC10287695, “Non-covalent inhibitors of thioredoxin glutathione reductase with schistosomicidal activity in vivo” (Nature Communications, 2023):
Where “and” joins values, the source holds several entries; their conditions need not be identical. Identical values can stand only once.

Experiments:
[1] = target: T1, S. mansoni TGR (Schistosoma mansoni, UniProt Q962Y6); test: S. mansoni TGR enzyme inhibition (DTNB reduction); format: biochemical; settings: 15 minutes pre-incubation
T1 construct: made in house
T1 sequence (Q962Y6 1-598): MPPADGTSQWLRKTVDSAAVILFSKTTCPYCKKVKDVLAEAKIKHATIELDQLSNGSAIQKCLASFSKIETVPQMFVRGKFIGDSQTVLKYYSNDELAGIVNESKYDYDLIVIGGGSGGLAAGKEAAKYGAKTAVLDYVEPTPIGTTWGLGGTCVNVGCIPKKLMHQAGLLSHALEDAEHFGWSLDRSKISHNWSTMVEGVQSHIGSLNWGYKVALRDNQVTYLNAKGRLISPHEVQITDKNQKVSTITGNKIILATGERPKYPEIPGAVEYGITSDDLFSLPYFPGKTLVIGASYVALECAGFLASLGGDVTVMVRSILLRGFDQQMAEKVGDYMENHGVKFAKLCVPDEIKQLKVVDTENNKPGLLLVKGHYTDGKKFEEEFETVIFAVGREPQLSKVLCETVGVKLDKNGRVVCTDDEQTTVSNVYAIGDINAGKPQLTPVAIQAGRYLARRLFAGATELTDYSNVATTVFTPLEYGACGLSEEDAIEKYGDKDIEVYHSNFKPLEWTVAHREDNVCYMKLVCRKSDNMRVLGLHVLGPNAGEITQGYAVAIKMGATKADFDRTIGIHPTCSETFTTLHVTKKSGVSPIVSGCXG
Description: (§1) Recombinant TGR, human TrxR1, B. malayi (Bm)TrxR and human GR proteins were expressed and purified as described[20],[69],[79]. The codon optimized sequence for P. falciparum (PfTrxR, https://www.ncbi.nlm.nih.gov/protein/CAA60574.1/) with an N-terminal 6-His tag was synthesized and inserted into pET15b (GenScript) and expressed in BL21 (DE3) cells and purified as described for human GR[20]. TGR and TrxR enzyme inhibition assays were performed in triplicate at 25 °C as described[20] in 0.1 M potassium phosphate (pH 7.4), 10 mM EDTA, 100 µM NADPH and 0.01% Tween-20. […] The reaction was started with addition of an equal volume of DTNB (6 mM) and NADPH (100 µM) and the increase in A412 during the first 3 min was recorded. […] The reaction was preincubated for 15 min. Activity was initiated with the addition of 1 mM GSSG and 100 μM NADPH and initial rates of NADPH oxidation were monitored at 340 nm. The reactions were done in triplicate. The IC50 was calculated in GraphPad Prism.

[2] = target: T2, Human TrxR1 (Homo sapiens, UniProt Q16881); test: Human TrxR1 enzyme inhibition (DTNB reduction); format: biochemical; settings: 15 minutes pre-incubation
T2 construct: made in house
T2 sequence (Q16881 1-499 isoform Q16881-5): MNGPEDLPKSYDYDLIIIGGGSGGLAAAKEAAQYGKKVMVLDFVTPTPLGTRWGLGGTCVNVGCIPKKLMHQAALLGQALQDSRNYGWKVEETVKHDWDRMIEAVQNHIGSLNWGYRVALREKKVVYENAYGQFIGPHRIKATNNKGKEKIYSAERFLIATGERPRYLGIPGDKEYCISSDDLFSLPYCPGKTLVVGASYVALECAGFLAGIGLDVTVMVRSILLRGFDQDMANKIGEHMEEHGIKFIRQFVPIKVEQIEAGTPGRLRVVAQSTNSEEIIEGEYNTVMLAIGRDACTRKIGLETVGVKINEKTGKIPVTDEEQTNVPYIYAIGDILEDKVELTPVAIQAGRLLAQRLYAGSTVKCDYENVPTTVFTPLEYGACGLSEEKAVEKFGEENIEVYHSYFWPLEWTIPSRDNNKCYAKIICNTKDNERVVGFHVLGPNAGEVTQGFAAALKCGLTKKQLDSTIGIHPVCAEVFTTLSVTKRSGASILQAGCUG
Description: as §1

[3] = target: T3, Human GR (Homo sapiens, UniProt P00390); test: Human GR enzyme inhibition (GSSG reduction, NADPH oxidation); format: biochemical
T3 construct: made in house
T3 sequence (P00390 44-522): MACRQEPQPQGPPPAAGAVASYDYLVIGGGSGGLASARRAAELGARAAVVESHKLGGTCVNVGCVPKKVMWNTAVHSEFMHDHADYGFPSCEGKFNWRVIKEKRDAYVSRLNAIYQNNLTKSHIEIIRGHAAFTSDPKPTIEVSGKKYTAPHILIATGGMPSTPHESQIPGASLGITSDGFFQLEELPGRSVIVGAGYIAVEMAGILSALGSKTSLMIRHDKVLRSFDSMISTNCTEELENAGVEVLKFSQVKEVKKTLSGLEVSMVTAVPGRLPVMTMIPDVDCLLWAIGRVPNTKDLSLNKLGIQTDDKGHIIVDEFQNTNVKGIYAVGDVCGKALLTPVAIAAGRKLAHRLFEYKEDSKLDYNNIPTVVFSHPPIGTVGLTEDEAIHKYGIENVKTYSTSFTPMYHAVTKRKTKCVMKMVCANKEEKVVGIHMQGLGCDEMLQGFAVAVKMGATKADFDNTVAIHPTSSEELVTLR
Description: Recombinant TGR, human TrxR1, B. malayi (Bm)TrxR and human GR proteins were expressed and purified as described[20],[69],[79]. The codon optimized sequence for P. falciparum (PfTrxR, https://www.ncbi.nlm.nih.gov/protein/CAA60574.1/) with an N-terminal 6-His tag was synthesized and inserted into pET15b (GenScript) and expressed in BL21 (DE3) cells and purified as described for human GR[20]. TGR and TrxR enzyme inhibition assays were performed in triplicate at 25 °C as described[20] in 0.1 M potassium phosphate (pH 7.4), 10 mM EDTA, 100 µM NADPH and 0.01% Tween-20. TGR, human TrxR1 and BmTrxR (all at 4 nM) and PfTrxR (50 nM) were preincubated with the compounds for 15 min. The reaction was started with addition of an equal volume of DTNB (6 mM) and NADPH (100 µM) and the increase in A412 during the first 3 min was recorded. […] […] Activity was initiated with the addition of 1 mM GSSG and 100 μM NADPH and initial rates of NADPH oxidation were monitored at 340 nm. The reactions were done in triplicate. The IC50 was calculated in GraphPad Prism.

[4] = tested on: TGR in newly transformed schistosomula (NTS); test: TGR inhibition in NTS with TRFS-Green fluorescent probe;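 further: untreated reference is NTS exposed to TRFS-Green probe alone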; format: cell-based, S. mansoni; settings: NTS
Description: TGR inhibition in NTS was assessed using a fluorescent probe TRFS-Green (Medchemexpress)[43]. NTS prepared as previously described and cultured in M199 supplemented with 5.5 mM D-glucose, penicillin-streptomycin and 5% heat inactivated fetal bovine serum were incubated at 37 °C in a clear bottom flat well plate in a 5% CO2 incubator overnight. […] NTS were further treated with TRFS-Green (10 µM) for additional 4 h and rinsed with M199 medium to remove residual TRFS-Green. Fluorescence images were obtained using Keyence BZ-X800. The quantification of fluorescence intensity upon the uptake of TRFS-Green by NTS was performed by a fluorescent microplate imager (BioTek Cytation3) (excitation, 438 nm; emission, 538 nm) hourly for 5 h and after 24 h.

C[C@@H]1[C@H]2C[C@@H](C[C@H]1NC(=O)Cc1nc3ccccc3n1C1CCCCC1)C2(C)C [C10]
TGR % inhibition ([1]; 1 µM): 1.833% | TGR % inhibition ([1]; 5 µM): 5.968% | TGR % inhibition ([1]; 15 µM): 42.2698% | TGR % inhibition ([1]; 30 µM): 76.1929% | TGR % inhibition ([1]; 66.7 µM): 82.1691% | hsTrxR % inhibition ([2]; 1 µM): 3.958% | hsTrxR % inhibition ([2]; 5 µM): 29.0366% | hsTrxR % inhibition ([2]; 15 µM): 63.1349% | hsTrxR % inhibition ([2]; 30 µM): 85.1161% | hsTrxR % inhibition ([2]; 66.7 µM): 92.1898% | hGR % inhibition ([3]; 15 minutes pre-incubation, 15 µM): -6.32% | hGR % inhibition ([3]; 15 minutes pre-incubation, 30 µM): -6.329% | hGR % inhibition ([3]; 15 minutes pre-incubation, 66.7 µM): 1.247% | hGR % inhibition ([3]; 6 hours pre-incubation, 15 µM): -1.804% | hGR % inhibition ([3]; 6 hours pre-incubation, 30 µM): -1.476% | hGR % inhibition ([3]; 6 hours pre-incubation, 66.7 µM): -1.27%

CCc1ccccc1-c1nc(CN[C@@H]2C[C@@H]3C[C@H]([C@H]2C)C3(C)C)c(C)o1 [C2 (8VP101)]
TGR inhibition visualized by TRFS-Green, Average ([4]; 1hr, 5 µM): 10460.5 | TGR inhibition visualized by TRFS-Green, single replicate ([4]; 1hr, 5 µM): 10308 and 10613 | TGR inhibition visualized by TRFS-Green, Average ([4]; 1hr, 15 µM): 10104 | TGR inhibition visualized by TRFS-Green, single replicate ([4]; 1hr, 15 µM): 10086 and 10122 | TGR inhibition visualized by TRFS-Green, Average ([4]; 1hr, 30 µM): 9753 | TGR inhibition visualized by TRFS-Green, single replicate ([4]; 1hr, 30 µM): 9694 and 9812 | TGR inhibition visualized by TRFS-Green, Average ([4]; 2hr, 5 µM): 13787 | TGR inhibition visualized by TRFS-Green, single replicate ([4]; 2hr, 5 µM): 13840 and 13734 | TGR inhibition visualized by TRFS-Green, Average ([4]; 2hr, 15 µM): 11633.5 | TGR inhibition visualized by TRFS-Green, single replicate ([4]; 2hr, 15 µM): 11622 and 11645 | TGR inhibition visualized by TRFS-Green, Average ([4]; 2hr, 30 µM): 11195 | TGR inhibition visualized by TRFS-Green, single replicate ([4]; 2hr, 30 µM): 11148 and 11242 | TGR inhibition visualized by TRFS-Green, Average ([4]; 3hr, 5 µM): 19344 | TGR inhibition visualized by TRFS-Green, single replicate ([4]; 3hr, 5 µM): 19467 and 19221 | TGR inhibition visualized by TRFS-Green, Average ([4]; 3hr, 15 µM): 14723.5 | TGR inhibition visualized by TRFS-Green, single replicate ([4]; 3hr, 15 µM): 14460 and 14987 | TGR inhibition visualized by TRFS-Green, Average ([4]; 3hr, 30 µM): 13932.5 | TGR inhibition visualized by TRFS-Green, single replicate ([4]; 3hr, 30 µM): 14033 and 13832 | TGR inhibition visualized by TRFS-Green, Average ([4]; 4hr, 5 µM): 23362.5 | TGR inhibition visualized by TRFS-Green, single replicate ([4]; 4hr, 5 µM): 23074 and 23651 | TGR inhibition visualized by TRFS-Green, Average ([4]; 4hr, 15 µM): 14824.5 | TGR inhibition visualized by TRFS-Green, single replicate ([4]; 4hr, 15 µM): 14826 and 14823 | TGR inhibition visualized by TRFS-Green, Average ([4]; 4hr, 30 µM): 13941.5 | TGR inhibition visualized by TRFS-Green, single replicate ([4]; 4hr, 30 µM): 13992 and 13891 | TGR inhibition visualized by TRFS-Green, Average ([4]; 5hr, 5 µM): 26593 | TGR inhibition visualized by TRFS-Green, single replicate ([4]; 5hr, 5 µM): 26274 and 26912 | TGR inhibition visualized by TRFS-Green, Average ([4]; 5hr, 15 µM): 16217 | TGR inhibition visualized by TRFS-Green, single replicate ([4]; 5hr, 15 µM): 16278 and 16156 | TGR inhibition visualized by TRFS-Green, Average ([4]; 5hr, 30 µM): 14810 | TGR inhibition visualized by TRFS-Green, single replicate ([4]; 5hr, 30 µM): 14697 and 14923 | TGR inhibition visualized by TRFS-Green, Average ([4]; 24hr, 5 µM): 29329.8 | TGR inhibition visualized by TRFS-Green, single replicate ([4]; 24hr, 5 µM): 29329.8 | TGR inhibition visualized by TRFS-Green, Average ([4]; 24hr, 15 µM): 17780.7 | TGR inhibition visualized by TRFS-Green, single replicate ([4]; 24hr, 15 µM): 17780.7 | TGR inhibition visualized by TRFS-Green, Average ([4]; 24hr, 30 µM): 15410.9 | TGR inhibition visualized by TRFS-Green, single replicate ([4]; 24hr, 30 µM): 15410.9
